Structures are written as SMILES.

The species entered for one data set is Rattus norvegicus. In words: Neuroprotective actvity against 6-OHDA-induced rat Parkinson's disease model assessed as improved locomotory actvity by open-field test. It counts as functional, organism-based. Particulars: dose 5-10 mg/kg.
Data set [1] is described as follows: Cardiotoxicity in Beagle dog at 30 to 300 mg/kg, po by telemetry analysis. The format is toxicity, organism-based, Canis lupus familiaris. Particulars: in vivo, dose 30-300 mg/kg.

Regarding `CC(=O)N1CCc2nc(N3CCC(Oc4ccc(F)cc4F)CC3)c(N[C@@H]3CCOC3)nc2C1`, the Activity entry in the data set listed under Rattus norvegicus was “Dose-dependent effect”; in data set [1] it was “Non-Toxic”.
